Laboratory results reported in patent publication US12534449B2, “Stable crystalline hydrate of clazosentan disodium salt” (Idorsia Pharmaceuticals Ltd, priority 2020, dated 2026).
Counter-ions that a name gives are not always drawn.

How the values were obtained:
[1] = Gravimetric vapor sorption (GVS) analysis; format: physicochemical; details: for behaviour of water content with relative humidity (GVS): humidity scan; for water content (GVS) in equivalents of water: equilibrium / final water content
Protocol: Gravimetric vapor sorption analysis of form C was performed on a Hiden Isochema IGAsorp™ Model HAS-036-080. Approximately 20 mg of the sample was placed without any pre-treatment into a stainless-steel mesh sample holder. The measurement was run at 25° C. with changing the humidity in the order 40%-95%-0%-40% RH by steps of 5% RH and with maximum equilibration time of 24 h at each step. Gravimetric vapor sorption experiments for all the other hydrates disclosed herein were performed on a SPS 100n instrument from ProUmid GmbH & Co. KG. Typically, 10-20 mg of material were placed into tared aluminum pans without any pre-treatment. The measurements were again run at 25° C. and with changing the humidity in the order 20%-90%-0%-25% RH by steps of 5% and with maximum equilibration time of 24 h at each step. When plotting the data (see corresponding Figures), weight changes of one equivalent of water are indicated by dotted horizontal lines.

[2] = Solubility of COMPOUND in water; details: room temperature

| Structure (SMILES) | hydrate stoichiometry attributed from GVS water content / uptake ([1]; 25° C.) | behaviour of water content with relative humidity (GVS) ([1]; 25° C.) | water content (GVS) in equivalents of water [1] | other results |
| --- | --- | --- | --- | --- |
| COc1ccccc1Oc1c([N-]S(=O)(=O)c2ccc(C)cn2)nc(-c2ccnc(-c3nnn[n-]3)c2)nc1OCCO.[Na+].[Na+] [form P] | trihydrate |  |  |  |
| COc1ccccc1Oc1c([N-]S(=O)(=O)c2ccc(C)cn2)nc(-c2ccnc(-c3nnn[n-]3)c2)nc1OCCO.[Na+].[Na+] [form C] |  | stable with a slight increase between 5% and 95% RH |  | behaviour of water content below 5% RH (GVS) ([1]; 25° C., below 5% RH): decreases dramatically; water content at the starting point (GVS) ([1]; 40% RH, 25° C., dry basis): 14% |
| COc1ccccc1Oc1c([N-]S(=O)(=O)c2ccc(C)cn2)nc(-c2ccnc(-c3nnn[n-]3)c2)nc1OCCO.[Na+].[Na+] [form E] |  |  | approx. 1 equivalents | water content at equilibrium (GVS scan) ([1]; 25° C.): 3% |
| COc1ccccc1Oc1c([N-]S(=O)(=O)c2ccc(C)cn2)nc(-c2ccnc(-c3nnn[n-]3)c2)nc1OCCO.[Na+].[Na+] [form L] |  |  | 3 equivalents | final water content (GVS experiment) ([1]; dried at 0% RH, then re-humidified at 40% RH): about 8% |
| COc1ccccc1Oc1c(NS(=O)(=O)c2ccc(C)cn2)nc(-c2ccnc(-c3nnn[nH]3)c2)nc1OCCO [COMPOUND, 5-methyl-pyridine-2-sulfonic acid N-{6-(2-hydroxy-ethoxy)-5-(2-methoxy-phenoxy)-2-[2-(1H-tetrazol-5-yl)-pyridin-4-yl]-pyrimidin-4-yl}-amide disodium salt] |  |  |  | solubility in water [2]: about 25 g in 100 mL |
| COc1ccccc1Oc1c([N-]S(=O)(=O)c2ccc(C)cn2)nc(-c2ccnc(-c3nnn[n-]3)c2)nc1OCCO.[Na+].[Na+] [form N] | tetrahydrate | noticeable adsorption of excess water with increasing relative humidity |  |  |
